The text below walks through data of patent US7214690B2, “Tricyclic quinolinone and tricyclic quinoline androgen receptor modulator compounds and methods” (Ligand Pharmaceuticals Incorporated, priority 2001, dated 2007).

For assay [1], the target named is T1, human AR (Homo sapiens, UniProt P10275).
T1 construct: expressed in transfected cells; host or cells: CV-1 cells (African green monkey kidney fibroblasts)
T1 sequence (P10275 1-920): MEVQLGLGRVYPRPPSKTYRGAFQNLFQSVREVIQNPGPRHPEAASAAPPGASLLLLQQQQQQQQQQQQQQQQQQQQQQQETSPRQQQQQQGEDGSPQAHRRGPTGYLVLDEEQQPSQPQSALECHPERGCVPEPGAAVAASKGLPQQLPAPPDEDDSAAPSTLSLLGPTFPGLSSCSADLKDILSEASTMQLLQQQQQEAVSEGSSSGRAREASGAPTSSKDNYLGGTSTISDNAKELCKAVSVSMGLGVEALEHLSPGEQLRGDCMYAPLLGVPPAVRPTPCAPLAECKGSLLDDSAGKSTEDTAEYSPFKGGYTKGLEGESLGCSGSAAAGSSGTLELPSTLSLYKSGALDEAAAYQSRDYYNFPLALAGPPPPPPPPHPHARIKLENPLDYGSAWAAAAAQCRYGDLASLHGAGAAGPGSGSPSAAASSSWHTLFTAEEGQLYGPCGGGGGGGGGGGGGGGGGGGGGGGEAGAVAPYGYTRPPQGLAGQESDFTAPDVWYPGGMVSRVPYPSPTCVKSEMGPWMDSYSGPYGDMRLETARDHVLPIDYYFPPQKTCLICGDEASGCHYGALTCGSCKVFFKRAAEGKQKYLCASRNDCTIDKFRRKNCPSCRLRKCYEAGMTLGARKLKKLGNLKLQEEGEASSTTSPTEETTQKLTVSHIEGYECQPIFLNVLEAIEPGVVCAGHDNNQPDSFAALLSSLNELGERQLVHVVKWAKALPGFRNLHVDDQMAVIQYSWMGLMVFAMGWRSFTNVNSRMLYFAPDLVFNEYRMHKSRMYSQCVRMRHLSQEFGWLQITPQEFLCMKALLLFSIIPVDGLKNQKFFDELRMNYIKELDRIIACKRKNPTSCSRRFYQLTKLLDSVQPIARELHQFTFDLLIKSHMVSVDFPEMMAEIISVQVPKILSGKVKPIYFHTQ
Description: co-transfection assay, hAR in CV-1 cells (MTV-LUC reporter). It counts as cell-based. The following applies: for AR Agonist CV-1 Cells Efficacy: agonist mode, luciferase production relative to DHT; for AR Agonist CV-1 Cells Efficacy / AR Antagonist CV-1 Cells Efficacy: hAR in CV-1 cells; for AR Antagonist CV-1 Cells Efficacy: antagonist mode, maximal inhibition of DHT-induced luciferase production. From the text:
The co-transfection assay provides a method for identifying functional agonists and partial agonists that mimic, or antagonists that inhibit, the effect of native hormones and quantifying their activity for responsive IR proteins. In this regard, the co-transfection assay mimics an in vivo system in the laboratory. Importantly, activity in the co-transfection assay correlates very well with known in vivo activity, such that the co-transfection assay functions as a qualitative and quantitative predictor of a tested compounds in vivo pharmacology. , See e.g., T. Berger et al. 41 J. Steroid Biochem. Molec.
(§1) CV-1 cells (African green monkey kidney fibroblasts) were cultured in the presence of Dulbecco's Modified Eagle Medium (DMEM) supplemented with 10% charcoal resin-stripped fetal bovine serum (CH-FBS) then transferred to 96-well microtiter plates one day prior to transfection.
The reporter plasmid, MTV-LUC, contains the cDNA for firefly luciferase (LUC) under control of the mouse mammary tumor virus (MTV) long terminal repeat, a conditional promoter containing an androgen response element. See e.g., Berger et al. supra. In addition, pRS-β-Gal, coding for constitutive expression of E. coli β-galactosidase (β-Gal), was included as an internal control for evaluation of transfection efficiency and compound toxicity.
(§2) Three to four replicates were used for each sample.
(§3) After 40 hours, the cells were washed with PBS, lysed with a Triton X-100-based buffer and assayed for LUC and β-Gal activities using a luminometer or spectrophotometer, respectively. For each replicate, the normalized response (NR) was calculated as: LUC response/β-Gal rate • where β-Gal rate=β-Gal/β-Gal incubation time.

Assay [2] has as its target T2, ER (Homo sapiens, UniProt P03372).
T2 construct: expressed in transfected cells; host or cells: background cell substantially devoid of endogenous IRs (CV-1 described for the co-transfection assay)
T2 sequence (P03372 1-595): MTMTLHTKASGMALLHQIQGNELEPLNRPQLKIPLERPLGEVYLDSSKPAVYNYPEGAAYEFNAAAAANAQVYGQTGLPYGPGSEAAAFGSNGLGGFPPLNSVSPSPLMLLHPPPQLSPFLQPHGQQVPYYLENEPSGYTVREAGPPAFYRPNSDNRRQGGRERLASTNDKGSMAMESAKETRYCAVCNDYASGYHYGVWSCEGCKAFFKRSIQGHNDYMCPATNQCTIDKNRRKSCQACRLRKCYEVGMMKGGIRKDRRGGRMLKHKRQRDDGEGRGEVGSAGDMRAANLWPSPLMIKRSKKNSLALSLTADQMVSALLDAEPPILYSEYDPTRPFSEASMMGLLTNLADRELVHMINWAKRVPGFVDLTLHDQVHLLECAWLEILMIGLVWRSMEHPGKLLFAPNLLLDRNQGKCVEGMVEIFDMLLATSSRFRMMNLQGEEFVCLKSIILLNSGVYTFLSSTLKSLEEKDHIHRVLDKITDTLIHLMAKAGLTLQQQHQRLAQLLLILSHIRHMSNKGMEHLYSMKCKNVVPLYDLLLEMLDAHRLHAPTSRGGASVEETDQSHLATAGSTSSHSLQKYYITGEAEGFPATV
Description: co-transfection assay, ER. The class given is cell-based. How it is done: as §1, §2, §3

Molecules are shown by their SMILES. Where two headings read alike, the source gives them in different places.

Regarding `CC[C@@H]1COc2c(ccc3[nH]c(=O)cc(C(F)(F)F)c23)N1CC` [Compound 109, (3R)-3,4-Diethyl-2,3,4,7-tetrahydro-10-(trifluoromethyl)-8H-[1,4]oxazino[2,3-f]quinolin-8-one], in assay [1], the EC50 came to 411 nM; the “AR Agonist CV-1 Cells Efficacy” value is 29%; the “AR Antagonist CV-1 Cells Efficacy” value was “na (not active (i.e. efficacy of <20 and potency of >10,000 nM for the cotransfection assay)”.

On to `CCCC1COc2c(ccc3[nH]c(=O)cc(C(F)(F)F)c23)N1` (racemic) [Compound 116, (±)-2,3,4,7-Tetrahydro-3-propyl-10-(trifluoromethyl)-8H-[1,4]oxazino[2,3-f]quinolin-8-one], for which, in assay [1], the EC50 was over 10000 nM; the “AR Agonist CV-1 Cells Efficacy” value is “na (not active (i.e. efficacy of <20 and potency of >10,000 nM for the cotransfection assay)”; the “AR Antagonist CV-1 Cells Efficacy” value came to 79%.

Take `CC(C)(O)C(=O)Nc1ccc([N+](=O)[O-])c(C(F)(F)F)c1` [Flut, 2-hydroxyflutamide, reference compound]: the EC50 in assay [2] (agonist mode, read-out: ER Potency Agon) is over 10000 nM. The IC50 in assay [2] (antagonist mode, read-out: ER Potency Antag) was over 10000 nM.

For `CC[C@@H]1COc2c(ccc3[nH]c(=O)cc(C(F)(F)F)c23)N1` [Compound 107, (3R)-3-Ethyl-2,3,4,7-tetrahydro-10-(trifluoromethyl)-8H-[1,4]oxazino[2,3-f]quinolin-8-one], in assay [1], the EC50 came to 301 nM, the “AR Agonist CV-1 Cells Efficacy” value is recorded as 17% and the “AR Antagonist CV-1 Cells Efficacy” value is 56%.

`C[C@@H]1COc2c(ccc3[nH]c(=O)cc(C(F)(F)F)c23)N1C` [Compound 102, (3R)-2,3,4,7-Tetrahydro-3,4-dimethyl-10-(trifluoromethyl)-8H-[1,4]oxazino[2,3-f]quinolin-8-one]: in assay [1], the EC50 is over 10000 nM; the “AR Agonist CV-1 Cells Efficacy” value is “na (not active (i.e. efficacy of <20 and potency of >10,000 nM for the cotransfection assay)”; the “AR Antagonist CV-1 Cells Efficacy” value was 32%.

For the compound `CC(=O)S[C@@H]1CC2=CC(=O)CC[C@]2(C)[C@H]2CC[C@@]3(C)[C@@H](CC[C@@]34CCC(=O)O4)[C@H]12` [Spir, spironolactone, reference compound], in assay [2], the EC50 is over 10000 nM and the IC50 is over 10000 nM.

In the case of `C[C@@H]1COc2c(ccc3[nH]c(=O)cc(C(F)(F)F)c23)N1CC(F)(F)F` [Compound 104, (3R)-2,3,4,7-Tetrahydro-3-methyl-4-(2,2,2-trifluoroethyl)-10-(trifluoromethyl)-8H-[1,4]oxazino[2,3-f]quinolin-8-one], in assay [1], the EC50 was found to be 7 nM; the “AR Agonist CV-1 Cells Efficacy” value was found to be 73%; the “AR Antagonist CV-1 Cells Efficacy” value was “na (not active (i.e. efficacy of <20 and potency of >10,000 nM for the cotransfection assay)”.

Take `C=CCN1c2ccc3[nH]c(=O)cc(C(F)(F)F)c3c2OC[C@H]1C(C)C` [Compound 126, (3R)-4-Allyl-2,3,4,7-tetrahydro-3-isopropyl-10-(trifluoromethyl)-8H-[1,4]oxazino[2,3-f]quinolin-8-one]: in assay [1], the EC50 was determined as 35 nM.

On to `CN1CC(C)(C)Oc2c1ccc1[nH]c(=O)cc(C(F)(F)F)c21` [Compound 138, 2,3,4,7-Tetrahydro-2,2,4-trimethyl-10-(trifluoromethyl)-8H-[1,4]oxazino[2,3-f]quinolin-8-one], for which, in assay [1], the EC50 was over 10000 nM; the “AR Agonist CV-1 Cells Efficacy” value is “na (not active (i.e. efficacy of <20 and potency of >10,000 nM for the cotransfection assay)”; the “AR Antagonist CV-1 Cells Efficacy” value is given as 90%.

On to `C[C@@H]1Oc2c(ccc3[nH]c(=O)cc(C(F)(F)F)c23)N(CC(F)(F)F)[C@@H]1C` (racemic) [Compound 136, (±)-(2S,3R)-2,3,4,7-Tetrahydro-2,3-dimethyl-4-(2,2,2-trifluoroethyl)-10-(trifluoromethyl)-8H-[1,4]oxazino[2,3-f]quinolin-8-one], for which, in assay [1], the EC50 was found to be 34 nM, the “AR Agonist CV-1 Cells Efficacy” value is given as 61% and the “AR Antagonist CV-1 Cells Efficacy” value is recorded as 24%.

Turning to `CCN1c2ccc3[nH]c(=O)cc(C(F)(F)F)c3c2OC[C@H]1C(C)C` [Compound 122, (3R)-4-Ethyl-2,3,4,7-tetrahydro-3-isopropyl-10-(trifluoromethyl)-8H-[1,4]oxazino[2,3-f]quinolin-8-one], in assay [1], the EC50 was determined as 270 nM; the “AR Agonist CV-1 Cells Efficacy” value came to 76%; the “AR Antagonist CV-1 Cells Efficacy” value was “na (not active (i.e. efficacy of <20 and potency of >10,000 nM for the cotransfection assay)”.

As to `CCCC1COc2c(ccc3[nH]c(=O)cc(C(F)(F)F)c23)N1C` (racemic) [Compound 117, (±)-2,3,4,7-Tetrahydro-4-methyl-3-propyl-10-(trifluoromethyl)-8H-[1,4]oxazino[2,3-f]quinolin-8-one], in assay [1], the EC50 was over 10000 nM; the “AR Agonist CV-1 Cells Efficacy” value is “na (not active (i.e. efficacy of <20 and potency of >10,000 nM for the cotransfection assay)”; the “AR Antagonist CV-1 Cells Efficacy” value amounted to 74%.
